Source: patent publication US9062077B2, “Benzopyranobenzothiazinones and their use as fungicides, antibiotics and antitumor agents” (Leibniz-Institut fuer Naturstoff-Forschung und …, priority 2011, dated 2015)

Legend:
Assay type in all cases: cell-based
HUVEC = experiment: antiproliferative assay, HUVEC; details: Homo sapiens, read-out: GI50, inhibition of proliferation of HUVEC
Procedure: (§1) HeLa cells were used for the cytotoxic assay, HUVEC and K-562 cells were taken for the antiproliferative assay. The assays were conducted with phaeofungin C as described previously (Krauth et al., Bioorg. Med. Chem. 2010, 18, 1816-1821; Abdou et al., Phytochemistry 2010, 71, 110-116). Dose-response curves and IC50 values were then plotted and estimated, respectively.

[1] = cytotoxic assay, HeLa cells; details: human, read-out: IC50, cytotoxic effects against HeLa cells
Procedure: as §1

[2] = system: K-562 human leukemia cell lines; experiment: antiproliferative assay, K-562; details: K562, read-out: GI50, inhibition of proliferation of K-562 human leukemia cell lines
Procedure: as §1

GI50 [2]: 2400 nM
SMILES: Cc1cc(O)c(O)c(Oc2cc(C)c3c4c(c(=O)oc3c2O)Nc2c(O)cc(C)cc2S4)c1 [Phaeofungin C]
GI50 (HUVEC): 7.5 µM | IC50 [1]: 10 µM
